Each block holds one substance with its values, some of them ahead of it.
Test system: IgE antibodies from patients
Assay: Wheat epitope mapping (2): overlapping 10-amino-acid peptide fragments shifted by one amino acid
Format: binding, human
Details: sequence without X; for Epitope sequence binding to IgE antibody, rank of the sequence (Key/Preferably/More preferably/Further preferably): serum of patient P50 (child, general immediate type allergy to wheat)
Summary of the method: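 Cellulose-bound 10-mer peptides offset by one residue were probed with patient serum IgE and detected by chemiluminescence. Secondary-antibody-only signals were subtracted per peptide. Residual binding was expressed as % of the parent overlapping peptide, scored as none (<30%), poor (30–<50%), somewhat poor (50–<70%) or retained (≥70%).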

[1] = serum of patient G1 (adult, general immediate type allergy to wheat)
[2] = serum of patient G4 (adult, general immediate type allergy to wheat)
[3] = serum of patient G7 (adult, general immediate type allergy to wheat)
[4] = serum of patient G9 (adult, general immediate type allergy to wheat)

Epitope sequence binding to IgE antibody, rank of the sequence (Key/Preferably/More preferably) (serum of patient P5 (WDEIA)): Key
Substance: 2266 (GGIDKRV; REGION 1..7: note = epitope) [compound 2266]

Epitope sequence binding to IgE antibody, rank of the sequence (Key/Preferably/More preferably) (serum of patient P5 (WDEIA)): Preferably
Substance: 2267 (KRVIERFEK; REGION 1..9: note = epitope) [compound 2267]

Epitope sequence binding to IgE antibody, rank of the sequence (Key/Preferably/More preferably) (serum of patient P5 (WDEIA)): Key
Substance: 2268 (ERFEK; REGION 1..5: note = epitope) [compound 2268]

Epitope sequence binding to IgE antibody, rank of the sequence (Key/Preferably/More preferably) (serum of patient P7 (WDEIA)): Key
Substance: 2269 (LGGIDK; REGION 1..6: note = epitope) [compound 2269]

Epitope sequence binding to IgE antibody, rank of the sequence (Key/Preferably/More preferably) (serum of patient P7 (WDEIA)): Key
Substance: 2270 (DKRVIERFEK; REGION 1..10: note = epitope) [compound 2270]

Epitope sequence binding to IgE antibody, rank of the sequence (Key/Preferably/More preferably) (serum of patient P8 (WDEIA)): More preferably
Substance: 2271 (LGGIDKRV; REGION 1..8: note = epitope) [compound 2271]

Epitope sequence binding to IgE antibody, rank of the sequence (Key/Preferably/More preferably) (serum of patient P8 (WDEIA)): Preferably
Substance: 2272 (GIDKRVIERF; REGION 1..10: note = epitope) [compound 2272]

Epitope sequence binding to IgE antibody, rank of the sequence (Key/Preferably/More preferably) (serum of patient P8 (WDEIA)): Key
Substance: 2273 (GIDKRV; REGION 1..6: note = epitope) [compound 2273]

Epitope sequence binding to IgE antibody, rank of the sequence (Key/Preferably/More preferably) (serum of patient P8 (WDEIA)): Preferably
Substance: 2274 (DKRVIERFEK; REGION 1..10: note = epitope) [compound 2274]

Epitope sequence binding to IgE antibody, rank of the sequence (Key/Preferably/More preferably) (serum of patient P8 (WDEIA)): Key
Substance: 2275 (KRVIERFEK; REGION 1..9: note = epitope) [compound 2275]

Epitope sequence binding to IgE antibody, rank of the sequence (Key/Preferably/More preferably) (serum of patient P10 (WDEIA)): Key
Substance: 2276 (GGIDK; REGION 1..5: note = epitope) [compound 2276]

Epitope sequence binding to IgE antibody, rank of the sequence (Key/Preferably/More preferably) (serum of patient P10 (WDEIA)): Key
Substance: 2277 (DKRVIERFEK; REGION 1..10: note = epitope) [compound 2277]

Epitope sequence binding to IgE antibody, rank of the sequence (Key/Preferably/More preferably) (serum of patient P14 (WDEIA)): Key
Substance: 2279 (LGGIDK; REGION 1..6: note = epitope) [compound 2279]

Epitope sequence binding to IgE antibody, rank of the sequence (Key/Preferably/More preferably) (serum of patient P14 (WDEIA)): Preferably
Substance: 2280 (DKRVIERFEK; REGION 1..10: note = epitope) [compound 2280]

Epitope sequence binding to IgE antibody, rank of the sequence (Key/Preferably/More preferably) (serum of patient P18 (WDEIA)): Key
Substance: 2282 (IDKRVIER; REGION 1..8: note = epitope) [compound 2282]

Epitope sequence binding to IgE antibody, rank of the sequence (Key/Preferably/More preferably) (serum of patient P18 (WDEIA)): Key
Substance: 2283 (ERFEKE; REGION 1..6: note = epitope) [compound 2283]

Epitope sequence binding to IgE antibody, rank of the sequence (Key/Preferably/More preferably) (serum of patient P26 (WDEIA)): Preferably
Substance: 2284 (LGGIDK; REGION 1..6: note = epitope) [compound 2284]

Epitope sequence binding to IgE antibody, rank of the sequence (Key/Preferably/More preferably) (serum of patient P26 (WDEIA)): Key
Substance: 2285 (GIDK; REGION 1..4: note = epitope) [compound 2285]

Epitope sequence binding to IgE antibody, rank of the sequence (Key/Preferably/More preferably) (serum of patient P26 (WDEIA)): Preferably
Substance: 2286 (DKRVIERFEK; REGION 1..10: note = epitope) [compound 2286]

Epitope sequence binding to IgE antibody, rank of the sequence (Key/Preferably/More preferably) (serum of patient P26 (WDEIA)): Key
Substance: 2287 (KRVIERFEK; REGION 1..9: note = epitope) [compound 2287]

Epitope sequence binding to IgE antibody, rank of the sequence (Key/Preferably/More preferably) (serum of patient P27 (WDEIA)): Key
Substance: 2288 (KRVIERF; REGION 1..7: note = epitope) [compound 2288]

Epitope sequence binding to IgE antibody, rank of the sequence (Key/Preferably/More preferably) (serum of patient P33 (WDEIA)): Key
Substance: 2289 (GGIDK; REGION 1..5: note = epitope) [compound 2289]

Epitope sequence binding to IgE antibody, rank of the sequence (Key/Preferably/More preferably) (serum of patient P33 (WDEIA)): Key
Substance: 2290 (DKRVIERFE; REGION 1..9: note = epitope) [compound 2290]

Epitope sequence binding to IgE antibody, rank of the sequence (Key/Preferably/More preferably) (serum of patient P34 (WDEIA)): Key
Substance: 2291 (LGGIDK; REGION 1..6: note = epitope) [compound 2291]

Epitope sequence binding to IgE antibody, rank of the sequence (Key/Preferably/More preferably) (serum of patient P34 (WDEIA)): Preferably
Substance: 2292 (KRVIERFEK; REGION 1..9: note = epitope) [compound 2292]

Epitope sequence binding to IgE antibody, rank of the sequence (Key/Preferably/More preferably) (serum of patient P34 (WDEIA)): Key
Substance: 2293 (ERFE; REGION 1..4: note = epitope) [compound 2293]

Epitope sequence binding to IgE antibody, rank of the sequence (Key/Preferably/More preferably/Further preferably): More preferably
Substance: 2294 (LGGIDKRVIE; REGION 1..10: note = epitope) [compound 2294]

Epitope sequence binding to IgE antibody, rank of the sequence (Key/Preferably/More preferably/Further preferably): Preferably
Substance: 2295 (LGGIDKRV; REGION 1..8: note = epitope) [compound 2295]

Epitope sequence binding to IgE antibody, rank of the sequence (Key/Preferably/More preferably/Further preferably): Key
Substance: 2296 (GIDK; REGION 1..4: note = epitope) [compound 2296]

Epitope sequence binding to IgE antibody, rank of the sequence (Key/Preferably/More preferably/Further preferably): Key
Substance: 2297 (ERFEK; REGION 1..5: note = epitope) [compound 2297]

Epitope sequence binding to IgE antibody, rank of the sequence (Key/Preferably/More preferably) [1]: Key
Substance: 2299 (GIDK; REGION 1..4: note = epitope) [compound 2299]

Epitope sequence binding to IgE antibody, rank of the sequence (Key/Preferably/More preferably) [1]: Key
Substance: 2300 (DKRVIERFEK; REGION 1..10: note = epitope) [compound 2300]

Epitope sequence binding to IgE antibody, rank of the sequence (Key/Preferably/More preferably) [2]: Key
Substance: 2301 (LGGIDK; REGION 1..6: note = epitope) [compound 2301]

Epitope sequence binding to IgE antibody, rank of the sequence (Key/Preferably/More preferably) [2]: Key
Substance: 2302 (IDKRVIERFE; REGION 1..10: note = epitope) [compound 2302]

Epitope sequence binding to IgE antibody, rank of the sequence (Key/Preferably/More preferably) [3]: Key
Substance: 2303 (LGGIDK; REGION 1..6: note = epitope) [compound 2303]

Epitope sequence binding to IgE antibody, rank of the sequence (Key/Preferably/More preferably) [3]: Key
Substance: 2304 (DKRVIERFE; REGION 1..9: note = epitope) [compound 2304]

Epitope sequence binding to IgE antibody, rank of the sequence (Key/Preferably/More preferably) [4]: Preferably
Substance: 2305 (LGGIDK; REGION 1..6: note = epitope) [compound 2305]

Epitope sequence binding to IgE antibody, rank of the sequence (Key/Preferably/More preferably) [4]: Key
Substance: 2306 (GIDK; REGION 1..4: note = epitope) [compound 2306]

Epitope sequence binding to IgE antibody, rank of the sequence (Key/Preferably/More preferably) [4]: Preferably
Substance: 2307 (RVIERFEK; REGION 1..8: note = epitope) [compound 2307]

Epitope sequence binding to IgE antibody, rank of the sequence (Key/Preferably/More preferably) [4]: Key
Substance: 2308 (ERFEK; REGION 1..5: note = epitope) [compound 2308]

Epitope sequence binding to IgE antibody, rank of the sequence (Key/Preferably/More preferably) (serum of patient P25 (WDEIA)): Key
Substance: 2314 (SRYDAIR; REGION 1..7: note = epitope) [compound 2314]

Epitope sequence binding to IgE antibody, rank of the sequence (Key/Preferably/More preferably) (serum of patient P25 (WDEIA)): Key
Substance: 2315 (IIYS; REGION 1..4: note = epitope) [compound 2315]

Epitope sequence binding to IgE antibody, rank of the sequence (Key/Preferably/More preferably) (serum of patient P34 (WDEIA)): Key
Substance: 2327 (RYDAIRAII; REGION 1..9: note = epitope) [compound 2327]

Epitope sequence binding to IgE antibody, rank of the sequence (Key/Preferably/More preferably) (serum of patient P34 (WDEIA)): Key
Substance: 2328 (IIYSI; REGION 1..5: note = epitope) [compound 2328]

Epitope sequence binding to IgE antibody, rank of the sequence (Key/Preferably/More preferably) (serum of patient P53 (child, general immediate type allergy to wheat)): Key
Substance: 2330 (AIRAI; REGION 1..5: note = epitope) [compound 2330]

Epitope sequence binding to IgE antibody, rank of the sequence (Key/Preferably/More preferably) (serum of patient G6 (adult, general immediate type allergy to wheat)): Key
Substance: 2339 (AIIYS; REGION 1..5: note = epitope) [compound 2339]

Epitope sequence binding to IgE antibody, rank of the sequence (Key/Preferably/More preferably) (serum of patient P9 (WDEIA)): Key
Substance: 2344 (HDIDRCAY; REGION 1..8: note = epitope) [compound 2344]

Epitope sequence binding to IgE antibody, rank of the sequence (Key/Preferably/More preferably) (serum of patient P9 (WDEIA)): More preferably
Substance: 2345 (YVTEIVL; REGION 1..7: note = epitope) [compound 2345]

Epitope sequence binding to IgE antibody, rank of the sequence (Key/Preferably/More preferably) (serum of patient P9 (WDEIA)): Preferably
Substance: 2346 (YVTEIV; REGION 1..6: note = epitope) [compound 2346]

Epitope sequence binding to IgE antibody, rank of the sequence (Key/Preferably/More preferably) (serum of patient P9 (WDEIA)): Key
Substance: 2347 (VTEI; REGION 1..4: note = epitope) [compound 2347]

Epitope sequence binding to IgE antibody, rank of the sequence (Key/Preferably/More preferably) (serum of patient P12 (WDEIA)): More preferably
Substance: 2350 (YVTEIVL; REGION 1..7: note = epitope) [compound 2350]

Epitope sequence binding to IgE antibody, rank of the sequence (Key/Preferably/More preferably) (serum of patient P14 (WDEIA)): Key
Substance: 2356 (YVTEIV; REGION 1..6: note = epitope) [compound 2356]

Epitope sequence binding to IgE antibody, rank of the sequence (Key/Preferably/More preferably) (serum of patient P18 (WDEIA)): Key
Substance: 2357 (HDIDRCAY; REGION 1..8: note = epitope) [compound 2357]

Epitope sequence binding to IgE antibody, rank of the sequence (Key/Preferably/More preferably) (serum of patient P18 (WDEIA)): Key
Substance: 2358 (TEIV; REGION 1..4: note = epitope) [compound 2358]

Epitope sequence binding to IgE antibody, rank of the sequence (Key/Preferably/More preferably) (serum of patient P21 (WDEIA)): Key
Substance: 2362 (VTEIV; REGION 1..5: note = epitope) [compound 2362]

Epitope sequence binding to IgE antibody, rank of the sequence (Key/Preferably/More preferably) (serum of patient P24 (WDEIA)): Preferably
Substance: 2367 (VTEIV; REGION 1..5: note = epitope) [compound 2367]

Epitope sequence binding to IgE antibody, rank of the sequence (Key/Preferably/More preferably) (serum of patient P26 (WDEIA)): Key
Substance: 2371 (HDIDRCAY; REGION 1..8: note = epitope) [compound 2371]

Epitope sequence binding to IgE antibody, rank of the sequence (Key/Preferably/More preferably) (serum of patient P26 (WDEIA)): Preferably
Substance: 2372 (TEIVL; REGION 1..5: note = epitope) [compound 2372]

Epitope sequence binding to IgE antibody, rank of the sequence (Key/Preferably/More preferably) (serum of patient P26 (WDEIA)): Key
Substance: 2373 (TEIV; REGION 1..4: note = epitope) [compound 2373]

Source: US20240393292A1, “ALLERGY ANTIGEN AND EPITOPE THEREOF” (HOYU CO., LTD., priority 2019, published 2024)
